US20100041089A1, “IMPROVED METHOD FOR DETECTING CHEMICAL […]” (priority 2006, published 2010)

Test system: yeast genes (expressed mRNA)
Assay: DNA chip measurement of expressed mRNA of yeast genes after culture with a toxic chemical substance
Format: cell-based, Saccharomyces cerevisiae S288C
Settings: for level of expressed mRNA in the presence of chemical substance / level in the absence of chemical substance: cultured two hours with the chemical substance; for The level of expressed mRNA in the presence of chemical substance/The level of expressed mRNA in the absence of chemical substance: cultured two hours with substance
Experimental: Yeast (Saccharomyces cerevisiae S288C (a SUC2mal mel gap2 CUP1)) were cultured at 25° C. on YPD medium (yeast extract 1%, polypeptone 2%, glucose 2%). One of toxic chemical substances was added to the cell at logarithmic growth phase, and the cell was further cultured for two hours. Cell was cultured without any chemical substance in the same condition, and was used as a control. Concentrations of the chemical substances were defined to inhibit the growth of the yeast but not lead to death.
After the completion of cultivation, the culture was centrifuged to collect the cells. To the cells, sodium acetate buffer (50 mM sodium acetate, 10 mM EDTA, 1% SDS) was added, and the mixture was shaken at 65° C. for five minutes, followed by returning to room temperature, and obtaining the supernatant, which procedure was repeated two times. To the supernatant, ½ amount of a solution of phenol/chloroform (1:1) was added, and the mixture was centrifuged to give a supernatant, an equal amount of chloroform was added, and the mixture was centrifuged to give a supernatant. To the supernatant, an equal amount of isopropanol containing 0.3 M sodium acetate was added, and the mixture was allowed to stand at room temperature for 30 minutes, after which the mixture was centrifuged to give sediment of the whole RNAs. Seventy % ethanol was added to the sediment, and the mixture was again centrifuged to give sediment, which was then dried and dissolved in water. mRNA was isolated from the whole RNAs as followings. In view of the fact that a poly A chain is attached to the 3′ terminus of mRNA, a polynucleotide having a poly T structure which was immobilized on the surface of latex beads was used to trap the mRNA, and then the mRNA was washed and eluted with spine column (Oligotex-dT30<Super>mRNA Purification Kit, Takara). Reverse transcription of the mRNA was conducted with a reverse transcriptase (Super Script II Reverse Transcriptase; catalogue No. 18064-014, GibcoBRL) using fluorescence-labeled nucleotides to give cDNAs that were introduced with Cy3-dUTP or Cy5-dUTP during the reverse transcription.
The labeled cDNAs were dissolved in TE buffer (10 mM Tris-HCl/1 mM EDTA, pH 8.0), and the solution was dropped on the DNA chip containing the whole genes of yeast (DNA Chip Research Inc. Japan) so that the cDNAs were hybridized on the DNA chip at 65° C. for over 12 hours. The fluoresces intensity of the DNA chip was read with a scanner, and the ratio relative to the fluorescence intensity resulting from the absence of chemical substance was estimated as the following, which is shown in Tables 1 to 9.
In the Tables, “Intensity” indicated in the rightmost column is a value of the level of expressed mRNA of each gene in control cells as divided by the average level of the expressions of the whole genes. A gene of which mRNA level is lower in control, and is higher in cases of addition of chemical substance, is especially useful in the detection of toxic substances.
Here, when a ratio of an amount of mRNA expressed in the presence of the chemical substance to an amount of mRNA expressed in the absence of the chemical substance is two or more, then it is considered significant.

Compound: [Cl][Pb][Cl] [(4), PbCl2]
- level of expressed mRNA in the presence of chemical substance / level in the absence of chemical substance (yeast gene YDR133C): 2.0
- level of expressed mRNA in the presence of chemical substance / level in the absence of chemical substance (yeast gene YDR250C): 3.0
- level of expressed mRNA in the presence of chemical substance / level in the absence of chemical substance (yeast gene YDR278C): 1.0
- level of expressed mRNA in the presence of chemical substance / level in the absence of chemical substance (yeast gene YDR281C): 2.1
- The level of expressed mRNA in the presence of chemical substance/The level of expressed mRNA in the absence of chemical substance (yeast gene YDR330W): 0.8
- level of expressed mRNA in the presence of chemical substance / level in the absence of chemical substance (yeast gene YDR366C): 0.9
- The level of expressed mRNA in the presence of chemical substance/The level of expressed mRNA in the absence of chemical substance (yeast gene YDR411C): 1.2
- The level of expressed mRNA in the presence of chemical substance/The level of expressed mRNA in the absence of chemical substance (yeast gene YDR511W): 2.3
- The level of expressed mRNA in the presence of chemical substance/The level of expressed mRNA in the absence of chemical substance (yeast gene YDR545W): 0.7
- The level of expressed mRNA in the presence of chemical substance/The level of expressed mRNA in the absence of chemical substance (yeast gene YEL001C): 0.7
- The level of expressed mRNA in the presence of chemical substance/The level of expressed mRNA in the absence of chemical substance (yeast gene YER004W): 1.4
- The level of expressed mRNA in the presence of chemical substance/The level of expressed mRNA in the absence of chemical substance (yeast gene YER035W): 1.9
- The level of expressed mRNA in the presence of chemical substance/The level of expressed mRNA in the absence of chemical substance (yeast gene YER079W): 2.0
- The level of expressed mRNA in the presence of chemical substance/The level of expressed mRNA in the absence of chemical substance (yeast gene YER106W): 1.2
- The level of expressed mRNA in the presence of chemical substance/The level of expressed mRNA in the absence of chemical substance (yeast gene YER158C): 3.1
- The level of expressed mRNA in the presence of chemical substance/The level of expressed mRNA in the absence of chemical substance (yeast gene YER163C): 1.6
- The level of expressed mRNA in the presence of chemical substance/The level of expressed mRNA in the absence of chemical substance (yeast gene YER175C): 2.2
- The level of expressed mRNA in the presence of chemical substance/The level of expressed mRNA in the absence of chemical substance (yeast gene YFL006W): 1.0
- The level of expressed mRNA in the presence of chemical substance/The level of expressed mRNA in the absence of chemical substance (yeast gene YFL010C): 1.0
- The level of expressed mRNA in the presence of chemical substance/The level of expressed mRNA in the absence of chemical substance (yeast gene YFL024C): 0.7
- The level of expressed mRNA in the presence of chemical substance/The level of expressed mRNA in the absence of chemical substance (yeast gene YFL032W): 0.8
- level of expressed mRNA in the presence of chemical substance / level in the absence of chemical substance (yeast gene YFR026C): 0.8
- The level of expressed mRNA in the presence of chemical substance/The level of expressed mRNA in the absence of chemical substance (yeast gene YGL037C): 2.1
- The level of expressed mRNA in the presence of chemical substance/The level of expressed mRNA in the absence of chemical substance (yeast gene YGL047W): 2.3
- The level of expressed mRNA in the presence of chemical substance/The level of expressed mRNA in the absence of chemical substance (yeast gene YGL053W): 2.5
- level of expressed mRNA in the presence of chemical substance / level in the absence of chemical substance (yeast gene YGL088W): 1.1
- The level of expressed mRNA in the presence of chemical substance/The level of expressed mRNA in the absence of chemical substance (yeast gene YGL121C): 4.2
- The level of expressed mRNA in the presence of chemical substance/The level of expressed mRNA in the absence of chemical substance (yeast gene YGL199C): 1.0
- level of expressed mRNA in the presence of chemical substance / level in the absence of chemical substance (yeast gene YGR038W): 0.8
- The level of expressed mRNA in the presence of chemical substance/The level of expressed mRNA in the absence of chemical substance (yeast gene YGR101W): 1.1
- The level of expressed mRNA in the presence of chemical substance/The level of expressed mRNA in the absence of chemical substance (yeast gene YGR110W): 5.9
- The level of expressed mRNA in the presence of chemical substance/The level of expressed mRNA in the absence of chemical substance (yeast gene YGR130C): 1.6
- level of expressed mRNA in the presence of chemical substance / level in the absence of chemical substance (yeast gene YGR139W): 0.7
- The level of expressed mRNA in the presence of chemical substance/The level of expressed mRNA in the absence of chemical substance (yeast gene YGR154C): 0.5
- The level of expressed mRNA in the presence of chemical substance/The level of expressed mRNA in the absence of chemical substance (yeast gene YGR221C): 1.4
- level of expressed mRNA in the presence of chemical substance / level in the absence of chemical substance (yeast gene YGR243W): 5.0
- level of expressed mRNA in the presence of chemical substance / level in the absence of chemical substance (yeast gene YGR293C): 0.0
- level of expressed mRNA in the presence of chemical substance / level in the absence of chemical substance (yeast gene YHL006C): 0.6
- level of expressed mRNA in the presence of chemical substance / level in the absence of chemical substance (yeast gene YHR095W): 2.1
- level of expressed mRNA in the presence of chemical substance / level in the absence of chemical substance (yeast gene YHR105W): 6.3
- The level of expressed mRNA in the presence of chemical substance/The level of expressed mRNA in the absence of chemical substance (yeast gene YHR138C): 2.8
- level of expressed mRNA in the presence of chemical substance / level in the absence of chemical substance (yeast gene YHR181W): 1.4
- The level of expressed mRNA in the presence of chemical substance/The level of expressed mRNA in the absence of chemical substance (yeast gene YHR199C): 2.0
- The level of expressed mRNA in the presence of chemical substance/The level of expressed mRNA in the absence of chemical substance (yeast gene YIL023C): 1.8
- The level of expressed mRNA in the presence of chemical substance/The level of expressed mRNA in the absence of chemical substance (yeast gene YIL041W): 1.3
- The level of expressed mRNA in the presence of chemical substance/The level of expressed mRNA in the absence of chemical substance (yeast gene YIL087C): 1.6
- level of expressed mRNA in the presence of chemical substance / level in the absence of chemical substance (yeast gene YIL127C): 1.2
- level of expressed mRNA in the presence of chemical substance / level in the absence of chemical substance (yeast gene YJL017W): 1.1
- level of expressed mRNA in the presence of chemical substance / level in the absence of chemical substance (yeast gene YJL037W): 2.4
- The level of expressed mRNA in the presence of chemical substance/The level of expressed mRNA in the absence of chemical substance (yeast gene YJL057C): 1.7
- The level of expressed mRNA in the presence of chemical substance/The level of expressed mRNA in the absence of chemical substance (yeast gene YJL066C): 2.5
- The level of expressed mRNA in the presence of chemical substance/The level of expressed mRNA in the absence of chemical substance (yeast gene YJL082W): 1.1
